The values below come from article PMC9861386, “N-Heterocyclic Carbene-Iridium Complexes as Photosensitizers for In Vitro Photodynamic Therapy to Trigger Non-Apoptotic Cell Death in Cancer Cells” (Molecules, 2023).

A short description of series [1]: Octanol–water partition coefficient, shake-flask method. The series is classed as physicochemical. The conditions noted are these: n-octanol/water, UV absorbance 260 nm. How it is done: Lipophilicities of all complexes have been measured by the classical shake-flask method, using UV absorption. The Log p values range from -0.063 to 0.861 in increasing order –0.063 (4a), 0.035 (4d), 0.519 (4f), 0.581 (4c), 0.842 (4b), 0.847 (4e) and 0.861 (4g).
The octanol–water partition coefficients (P) of 4a to 4g were determined using a shake-flask method. Water (100 mL, distilled after milli-Q purification) and n-octanol (100 mL, Sigma-Aldrich, St. Louis, MO, USA, ACS spectrophotometric grade, ≥99%) were shaken together for 24 h to allow saturation of both phases. Stock solutions of the […] compounds (50 μM) were prepared in the aqueous phase and aliquots (1 mL) of each of these stock solutions were then added to an equal volume of the n-octanol phase. The resultant biphasic solutions were mixed for 1 h and then centrifuged (3000× g, 5 min) (Eppendorf Centrifuges 5415R and 5804R) to separate the phases. The concentrations of the complexes in the organic and aqueous phases were then determined using UV absorbance spectroscopy (260 nm). Log P was defined as the logarithm of the ratio of the concentrations of the studied complex in the organic and aqueous phases (Log P = Log {[Ir(org)]/[Ir(aq)]}; values reported are the means of at least two separate determinations).

The next series has as its system PC-3. As to the kind of experiment: MTT cytotoxicity, 48 h. The series is classed as cell-based, human. As to conditions: for GI50: MTT; for SI (PC-3): NIH3T3 vs PC-3. How it is done:
(§1) The in vitro cytotoxicity of iridium(III) complexes 4a–4g was first evaluated against cancer cell lines PC-3 (human prostate) and T24 (human bladder) and the non-cancerous NIH-3T3 cell line (murine fibroblasts) using colorimetric MTT tests after 48 h of treatment. The dimeric iridium precursor [IrCl(ppy)2]2 was used as reference and the results are summarized in Table S1 (Supplementary Materials) in the supporting information file. […] The complexes were also evaluated for their cytotoxicity towards healthy NIH-3T3 cells, giving access to the selectivity index (SI). […] No linear correlation between lipophilicity and anti-cancer activity was found for the iridium(III) complexes 4a–4g. For the following biological studies, we focused on the C1 series.
(§2) Table S1. Cytotoxic activity of iridium(III) NHC complexes 4a−4g expressed as GI50 (μM) values towards selected cancer and normal cell lines as determined by MTT assay (48 h).a Complex PC-3 T24 NIH3T3 SI (PC-3) SI (T24) […]
(§3) a GI50 values correspond to the concentration of complexes causing 50 % inhibition of cell growth.
(§4) Data were obtained from three independent experiments.
(§5) The cytotoxic effects of the NHC precursors, the imidazolium salts, which represents the potential hydrolysis and/or degradation products of the complexes, have been published before [SI-1, SI-2]. […]

A further series relates to T24. Briefly: MTT cytotoxicity, 48 h. The series is classed as cell-based, human. As to conditions: for GI50: MTT; for SI (T24): NIH3T3 vs T24. How it is done: as §1, §2, §3, §4, §5
For the next series, the system named is NIH3T3. Briefly: MTT cytotoxicity, 48 h. The series is classed as cell-based, murine. How it is done: as §1, §2, §3, §4, §5
The nature of series [2]: Photophysical measurements (emission, quantum yield, lifetime) in CH2Cl2. The series is classed as physicochemical. The conditions noted are these: CH2Cl2, 298 K, references POPOP and quinine sulfate. From the text:
All complexes have been photophysically investigated at standard pressure in CH2Cl2 at 298 K. The absorption spectra of complexes 4a to 4g in CH2Cl2 at 298 K are shown in Figure 7. The strong absorption bands below 300 nm correspond to spin-allowed ^1π→π* electronic ligand-centered (LC) transitions. The structureless bands at 300–360 nm are attributed to ppy-to-ppy ^1π→π* […] charge transfer (LLCT) and Ir-to-ppy metal-to-ligand charge transfer (MLCT) transitions. The lowest-lying bands in the visible region can be assigned to both singlet and triplet MLCT transitions. No significant difference in the absorption spectra of complexes 4a to 4g can be found in the CH2Cl2 solution.
The luminescence spectra of complexes 4a to 4f in CH2Cl2 at 298 K are shown in Figure 8 and their photophysical data are summarized in Table 1.
The relative emission quantum yields (ΦPL) of these complexes in CH2Cl2 at room temperature were measured by using POPOP and quinine sulfate in 1 N H2SO4 as standard references (ΦPL = 97% and ΦPL = 54%, respectively). […] In addition, the excited-state lifetimes of complexes 4a to 4d are in the range of 166.4–190.7 ns, indicating the phosphorescence nature of the emissions.
UV/Vis absorption spectra were recorded at RT on solutions contained in quartz cuvettes (optical pathlength 1 cm, Hellma® (HELLMA, Müllheim, Germany)) with a PerkinElmer® (PerkinElmer, Waltham, MA, USA) UV/VIS/NIR spectrophotometer Lambda 950 and a PerkinElmer® detector UV/VIS/NIR Accessory 2D Detector Module.
Fluorescence and phosphorescence emission spectra were obtained with a HORIBA JOBIN YVON (Bensheim, Germany) fluromax-4 and spectrofluorometer.
Luminescence quantum yields were measured according to the method of Demas and Crosby, on solution samples at RT. The quantum yield is defined as: ΦS=ΦR*As/Ar* ηs/ηr^2^2 where ΦS is the quantum yield of the sample, ΦR is the known quantum yield of the reference standard at the area subtended by the emission band (on a wavelength scale) and η is the refractive index of the solvent used for the preparation of the solution. As (related to the sample) and Ar (related to the reference) must be excitation wavelength. Different standards were selected depending on the spectral region of the interest: POPOP in hexane (Φ = 97%) and QUININNE in water (Φ = 54%).
Fluorescence lifetime measurements were performed by an Edinburgh FLS920 spectrofluorometer equipped with a TCC900 card for data acquisition in time-correlated single-photon counting experiments (0.5 ns time resolution) with a D2 lamp and an LDH-P-C-405 pulsed diode laser. The estimated experimental error was 2 nm on the band maximum (5% on the lifetime, 10% on the fluorescence quantum yield).

Another series has as its system MCF7/FasR cells. As to the kind of experiment: Cell death with or without pan-caspase inhibitor z-VAD-fmk, MTT. The series is classed as cell-based, human. As to conditions: 72 h. From the text:
To determine the mechanism of cell death, we used MCF7 cells transfected to express the human Fas receptor (FasR) or doubly transfected to express the human Fas receptor and human Bcl-xL [75]. Since MCF7 cells express the TNF receptor endogenously, this allowed the study of both Fas- and TNFα-mediated apoptosis in the same cell model to assess whether cell death was dependent on the Bcl-2 family of mitochondrial proteins such as Bcl-xL. […] This is consistent with findings that death receptors such as FasR and TNFR can mediate apoptosis through both the extrinsic pathway (mitochondria-independent by directly activating executioner caspases via upstream caspase-8) and the intrinsic (mitochondrial) pathway controlled by the Bcl-2 family of proteins.
We next evaluated the effect of the pan-caspase inhibitor z-VAD-fmk on caspase signaling. As expected, the treatment with z-VAD-fmk rendered MCF7/FasR cells resistant to TNFα-induced PARP and caspase-7 processing (Figure 14A) and to the loss of cell viability (Figure 14B).
A tetrazolium-based MTT reagent (3-(4,5-dimethylthiazol-2-yl)-2,5-diphenyltetrazolium bromide) was used to determine cell viability, as previously described. After 72 h of treatment at 37 °C and 5% CO2, cells were incubated with 25 μL MTT solution (5 mg/mL; Sigma-Aldrich) for 4 h. After solubilization with 500 μL of lysis buffer (DMSO), formazan was quantified by spectrophotometry with a microplate reader at 570 nm absorbance (ClarioSTAR, BMG LabTech, Champigny-sur-Marne, France). […] All results were calculated from data obtained in at least three independent experiments.
Figure 11 Bcl-xL and z-VAD-fmk inhibited by Fas- or TNFα-induced cell death in MCF7 cells. […] Cell death was assessed by MTT assay. […]
Figure 14 Evaluation of apoptotic biomarkers. […] (B) Cell viability was evaluated in duplicate samples. Data are expressed as percent (%) of untreated cells and are the means of 3 independent experiments (***, p < 0.0001, NS, not significant).

For series [3], the system named is MCF7/FasR and MCF7/FasR/Bcl-xL cells. Briefly: GSH quantification (GSH-Glo). The series is classed as cell-based, human. As to conditions: complex 4a all doses with 458 nm irradiation; TNFα 100 ng/mL; 72 h. How it is done:
ATP and glutathione (GSH) contents were measured with the Promega CellTiter-Glo (Cat#G7570) and GSH-Glo (cat#6911) luminescent assays, respectively, according to the manufacturer’s recommendations.
Figure 13 Evaluation of apoptotic biomarkers. MCF7/FasR and MCF7/FasR/Bcl-xL cells were irradiated at 458 nm in presence of the indicated concentration of complex 4a or treated with […] TNFα for 72 h. (A) Cytosolic extracts from MCF7/FasR and MCF7/FasR/Bcl-xL cells were separated by SDS-PAGE and probed with anti-PARP, anti-caspase-7 and anti-caspase-8. Migrations indicated are: full-length PARP p113, cleaved PARP p89, full-length caspase-7 and full-length caspase-8. (B) MTT, ATP and GSH assays were evaluated in duplicate samples. Data are expressed as percent (%) of untreated cells and are the means of 3 independent experiments (***, p < 0.0001, NS, not significant).

Series [4] has the same test system. Briefly: Bcl-xL dependence of cell death, MTT in MCF7/FasR vs MCF7/FasR/Bcl-xL. The series is classed as cell-based, human. The conditions noted are these: complexes: 458 nm irradiation, 10 nM to 1 µM, TNFα 100 ng/mL, 72 h. The text has this:
To determine the mechanism of cell death, we used MCF7 cells transfected to express the human Fas receptor (FasR) or doubly transfected to express the human Fas receptor and human Bcl-xL [75]. Since MCF7 cells express the TNF receptor endogenously, this allowed the study of both Fas- and TNFα-mediated apoptosis in the same cell model to assess whether cell death was dependent on the Bcl-2 family of mitochondrial proteins such as Bcl-xL. […]
Mitochondrial outer membrane permeabilization (MOMP), which leads to rapid cell death through the release of mitochondrial proteins (including cytochrome c) that activate executioner caspases, is the critical event in intrinsic apoptosis. […] We then assessed whether the cell death induced by our complexes could be abrogated by the overexpression of Bcl-xL.
A tetrazolium-based MTT reagent (3-(4,5-dimethylthiazol-2-yl)-2,5-diphenyltetrazolium bromide) was used to determine cell viability, as previously described. […] After solubilization with 500 μL of lysis buffer (DMSO), formazan was quantified by spectrophotometry with a microplate reader at 570 nm absorbance (ClarioSTAR, BMG LabTech, Champigny-sur-Marne, France). […] All results were calculated from data obtained in at least three independent experiments. […]
Figure 13 Evaluation of apoptotic biomarkers. […] (B) MTT, ATP and GSH assays were evaluated in duplicate samples. […]

Where a SMILES comes first, the peptide text is derived from it. The star is where a group is joined. Cbz = O=C(OCc1ccccc1)*; CH2F = FC*

As usually defined, the Log P is a log measure of how a compound divides between an organic and an aqueous phase. A low value points to lower lipophilicity. As usually defined, the GI50 is the concentration that inhibits growth by half.

`F[P-](F)(F)(F)(F)F.c1ccc(C[n+]2ccn3[c]2[Ir-3]24([c]5ccccc5-c5cccc[n+]52)([c]2ccccc2-c2cccc[n+]24)[c]2n(cc[n+]2Cc2ccccc2)CC3)cc1` [Complex 4e]: the “Log P” value in series [1] is 0.847. For the same molecule, in the series on PC-3, the 50% growth inhibitory concentration (GI50) was 250 nM and the “SI (PC-3)” value was 10.0. Moreover, in the series with T24, the GI50 amounted to 290 nM and the “SI (T24)” value is given as 8.6. Moreover, in the series with NIH3T3, growth was halved (GI50) at 2500 nM. For the same molecule, the “ΦPL emission quantum yield” value in series [2] was found to be 0.2%.
For the molecule `CC(C)C[n+]1ccn2[c]1[Ir-3]13([c]4ccccc4-c4cccc[n+]41)([c]1ccccc1-c1cccc[n+]13)[c]1n(cc[n+]1CC(C)C)CC2.F[P-](F)(F)(F)(F)F` [Complex 4f], the “Log P” value in series [1] worked out at 0.519. The 50% growth inhibitory concentration (GI50) with PC-3 was 910 nM; with T24, 910 nM; in the series with NIH3T3 it was 4100 nM. Moreover, the “SI (PC-3)” value with PC-3 turned out to be 4.5. The “SI (T24)” value with T24 amounted to 4.5. The “ΦPL emission quantum yield” value in series [2] is listed as 0.2%.
For `COC(=O)C[C@H](NC(=O)[C@H](C)NC(=O)[C@@H](NC(=O)OCc1ccccc1)C(C)C)C(=O)CF` [z-VAD-fmk, reference compound] (Cbz-Val-Ala-Asp(OMe)-CH2F), the “effect on cell death induced by Fas antibody and TNFα” value in the series with MCF7/FasR cells (10 µM z-VAD-fmk, MCF7/FasR and MCF7/FasR/Bcl-xL) is reported as “completely abolished cell death”.
As for TNFα, the “level of reduced GSH” value in series [3] is reported as “decreased”. In series [4], the “effect of Bcl-xL overexpression on loss of cell viability” value is “strongly inhibited by Bcl-xL”. Also, the “reduction in cell viability” value in the series on MCF7/FasR cells (TNFα 100 ng/mL, MCF7/FasR, MTT) is given as 65–85%.
